Measured values: paper PMC13083723 (Patterns, 2026)
Structures can show the parent of a compound that is named as a salt. Where two headings read alike, the source gives them in different places.

How the values were obtained:
A549-ACE2 cells = experiment: cells; format: cell-based; details: A549-ACE2, 24 h, read-out: PLD_Effect(%) A549-ACE2
Vero-E6 cells = experiment: cells; format: cell-based; details: Chlorocebus sabaeus, Vero C1008, 24 h
[1] = read-out: PLD_Effect(%) VERO-E6

Structure (SMILES) | activation at 10 µM (A549-ACE2 cells) [%] | activation at 10 µM (Vero-E6 cells; [1]) [%] | activation at 10 µM (Vero-E6 cells; read-out: PL_Result) [%]
CN1CCN(C2=Cc3ccccc3Oc3ccc(Cl)cc32)CC1 [2-CMDO] | 92.5 | 61.3 | –
CN(CCc1ccc(Cl)c(Cl)c1)CCN1CCCC1 [BD-1008] | 62.5 | 51.3 | –
C[C@H](N)Cn1ccc2cc(F)c(Cl)cc21 [Ro-60-0175 fumarate] | 82.7 | 50.7 | –
c1ccc2c(CCNc3ccc(Nc4ccncc4)cc3)c[nH]c2c1 [JNJ 26854165 (Serdemetan)] | 88.4 | 74 | –
COC(=O)Nc1ccc(-c2nc(N3CCOCC3)c3cnn(C4CCN(Cc5cccnc5)CC4)c3n2)cc1 [SPE_K49900195] | – | – | 1.79
Clc1ccc(Nc2nnc(Cc3ccncc3)c3ccccc23)cc1 [SPE_K70163715] | – | – | -2.12
COc1ccc(OC)c(C(O)CNC(=O)CN)c1 (stereo not shown) [SPE_A79981887] | – | – | 8.02
O=C1NC(O)CCN1[C@@H]1O[C@H](CO)[C@@H](O)[C@H]1O (stereo partly shown) [SPE_A86248581] | – | – | -8.11
Oc1cc(O)cc(/C=C/c2ccc(O)c(O)c2)c1 [SPE_K91509126] | – | – | 9.23
CNC(=O)[C@H]1O[C@@H](n2cnc3c(NCc4cccc(I)c4)nc(Cl)nc32)[C@H](O)[C@@H]1O [SPE_K52396582] | – | – | -2.9
CCCCCCCCCCCCCCCC(=O)OC(CC(=O)O)C[N+](C)(C)C (stereo not shown) [SPE_A77577770] | – | – | 3.73
Clc1ccc(C(Cn2ccnc2)OCc2ccsc2Cl)c(Cl)c1 (stereo not shown) [SPE_A33084557] | – | – | 4.51
N=C(N)NCc1cccc(I)c1 [SPE_K43860855] | – | – | -5.07
c1ccc(CNCc2ccc(CN3CCCNCCNCCCNCC3)cc2)nc1 [SPE_K03019184] | – | – | -0.191
COc1ccc(Oc2c(Cl)cnn(C3c4ccccc4-c4ccccc43)c2=O)cc1 [SPE_K27732927] | – | – | -5.19
CC(C)[C@@H](C)/C=C/[C@@H](C)[C@H]1CC[C@H]2C3=CC=C4C[C@@H](O)CC[C@]4(C)[C@H]3CC[C@]12C [SPE_K09161066] | – | – | -4.6
CC(C)(C)c1ccc(-c2nc3ccccc3[nH]2)cc1 [SPE_K73073971] | – | – | 9.59

Structure (SMILES) | activation at 10 µM (A549-ACE2 cells) [%] | activation at 10 µM (Vero-E6 cells; [1]) [%] | activation at 10 µM (Vero-E6 cells; read-out: PL_Result) [%]
CC(CNS(=O)(=O)C(C)C)c1ccc(-c2ccc(C#N)cc2)cc1 (stereo not shown) [SPE_A50062753] | – | – | -2.67
NS(=O)(=O)c1cc(C(=O)O)cc(N2CCCC2)c1Oc1ccccc1 [SPE_K87990216] | – | – | 0.629
CC1CCN(C(c2ccc(F)cc2)c2ccc(C(C)C(=O)O)cc2-c2ccc(C(F)(F)F)cc2)CC1 (stereo not shown) [SPE_A66521565] | – | – | -6.16
COc1cc2c(cc1NS(=O)(=O)c1ccc(Br)cc1C)n(C)c(=O)n2C [SPE_K92658264] | – | – | -2.45
CC(C)(C)NCC(O)COc1cccc2[nH]c(=O)[nH]c12 (stereo not shown) [SPE_A40084411] | – | – | 1.76
C[C@H](CCC(=O)O)[C@H]1CC[C@H]2[C@@H]3C[C@H](O)[C@@H]4C[C@H](O)CC[C@]4(C)[C@H]3CC[C@]12C [SPE_K49031386] | – | – | -3.75
C[C@H](NC(=O)[C@@H](O)c1cc(F)cc(F)c1)C(=O)N[C@@H]1C(=O)N(C)c2ccccc2-c2ccccc21 [SPE_K20013301] | – | – | -13.5
CCn1cc(C(=O)O)c(=O)c2cc(F)c(N3CCNC(C)C3)c(F)c21 (stereo not shown) [SPE_A75850590] | – | – | -1.78
CC(C)Oc1ccc2c(=O)c3cc(C(=O)O)ccc3oc2c1 [SPE_K59339270] | – | – | -2.83
CCC[C@H](N[C@@H](C)C(=O)N1[C@H](C(=O)O)C[C@@H]2CCCC[C@@H]21)C(=O)OCC [SPE_K92731339] | – | – | 4.37
O=C(O)c1cc(O)c2ccccc2n1 [SPE_K85872723] | – | – | -13
CCCNC(=O)N1N=C(c2ccc(N)cc2)c2cc3c(cc2C1C)OCO3 (stereo not shown) [SPE_A77218119] | – | – | 7.61
Cc1cc(C(N)=O)ccc1-n1c(CCC(=O)O)ccc1-c1ccc(-n2ccnc2)cc1 [SPE_K82522873] | – | – | -2.92
NC(C(=O)O)c1nnn[nH]1 (stereo not shown) [SPE_A14757586] | – | – | -5.28
N#Cc1cc(F)cc(-c2nc(-c3ccc(F)cn3)no2)c1 [SPE_K61043483] | – | – | 1.97
C=CCc1ccc(O)c(-c2ccc(O)c(CC=C)c2)c1 [SPE_K98493452] | – | – | -13.9
